# Source: patent US20250041303A1, “COMBINATION THERAPY FOR CANCER TREATMENT” (INSTITUTE FOR CANCER RESEARCH D/B/A THE RESEARCH INSTITUTE …, priority 2021, published 2025)
# Key:
# KRASG12C = molecular target: T1, KRASG12C (Homo sapiens, UniProt P01116, G12C); assay: Western blot of KRASG12C and effector signaling in SW1463 cells; type: cell-based; conditions: for PROTAC-mediated degradation of KRASG12C on combining with LC-2 / phosphorylation of MEK and ERK on combining with LC-2: lapatinib 5 μM or tariquidar 0.01 μM
# T1 construct: endogenous in cells; host or cells: SW1463
# Description: (§2) Samples were harvested in MIB lysis buffer (50 mM HEPES (pH 7.5), 0.5% Triton X-100, 150 mM NaCl, 1 mM EDTA, 1 mM EGTA, 10 mM sodium fluoride, 2.5 mM sodium orthovanadate, 1× protease inhibitor cocktail (Roche), and 1% each of phosphatase inhibitor cocktails 2 and 3 (Sigma)). Particulate was removed by centrifugation of lysates at 21,000 rpm for 15 minutes at 4° C. Lysates were subjected to SDS-PAGE chromatography and transferred to PVDF membranes before western blotting with primary antibodies. […] Secondary HRP-anti-rabbit and HRP-anti-mouse were obtained from ThermoFisher Scientific. SuperSignal West Pico and Femto Chemiluminescent Substrates (Thermo) were used to visualize blots.
# [1] = tested on: SW1463 or SW837 KRASG12C cells; assay: Colony formation assay (14 days) in KRASG12C CRC cells; conditions: 1 μM
# [2] = tested on: A1847 Parental or dBET6-R cells; assay: Western blot for cross-resistance to other PROTACs; type: cell-based; conditions: A1847 dBET6-R vs parental; 1 μM, 24 hours
# MDR1 (ABCB1) = assay: Single-run proteomics (LC-MS/MS, label-free quantitation) of degrader-resistant cells; type: cell-based, human; conditions: A1847 cells chronically exposed to the degrader (degrader-R) vs parental
# Description: To determine changes in cells chronically exposed to BET or CDK9 PROTACs, we performed single-run proteome analysis as previously described (Lai et al., Front. Oncol., 2020, 10, 2336). Briefly, WT or PROTAC-R cells were lysed in 50 mM HEPES pH 8.0+4% SDS, and 100 μg of proteins were digested using LysC and trypsin. Digested peptides were isolated using C-18 and PGC columns, then dried and cleaned with ethyl acetate. Three […] peptides were analyzed using LC-MS/MS. MaxQuant normalized LFQ values were imported into Perseus software (1.6.2.3) and filtered in the following manner: kinases identified by site only were removed, reverse, or potential contaminant were removed then filtered for kinases identified by >1 unique peptide. Protein LFQ values were log 2 transformed, filtered for a minimum valid number of 3, normalized using Z-scores, annotated, and subjected to a Student's t-test with comparing […]. […]
# Proteolytic peptides were resuspended in 0.1% formic acid and separated with a Thermo Scientific RSLC nano Ultimate 3000 LC on a Thermo Scientific Easy-Spray C18 PepMap 75 μm×50 cm C-18 2 μm column. […] Eluted peptides were analyzed by Thermo Scientific Q Exactive or Q Exactive plus mass spectrometers utilizing a top 15 methodology in which the 15 most intense peptide precursor ions were subjected to fragmentation. […]
# Raw data analysis of LFQ experiments was performed using MaxQuant software 1.6.1.0 and searched using Andromeda 1.5.6.0 against the Swiss-Prot human protein database (downloaded on Apr. 24, 2019, 20402 entries). […] LFQ quantitation was performed using MaxQuant with the following parameters; LFQ minimum ratio count: Global parameters for protein quantitation were as follows: label minimum ratio count: 1, peptides used for quantitation: unique, only use modified proteins selected and with normalized average ratio estimation selected. Match between runs was employed for LFQ quantitation and the significance threshold of the ion score was calculated based on a false discovery rate of <1%.
# CDK9 [3] = molecular target: T2, CDK9 (Homo sapiens, UniProt P50750); assay: Western blot of CDK9 degradation, A1847 parental vs Thal-R cells; type: cell-based
# Description: as §2
# [4] = tested on: A1847 and SUM159 parental and degrader-resistant cells; assay: CellTiter-Glo cell viability, parental vs degrader-resistant cells; conditions: for sensitivity of degrader-resistant cells vs parental cells (cell viability): increasing concentrations, A1847 dBET6-R, Thal-R, MZ1-R and SUM159 MZ1-R
# [5] = tested on: HCT-15, DLD-1 and CAKI-1 cells (MDR1 overexpressing); assay: CellTiter-Glo cell viability of MDR1 overexpressing vs low MDR1 cancer cell lines; conditions: HCT-15, DLD-1, CAKI-1 vs A1847, SUM159, MOLT4; escalating doses, 5 days
# CDK9 [6] = molecular target: T2, CDK9; assay: Western blot of CDK9 degradation in DLD-1 cells; type: cell-based; parameters: endogenous in cells; host or cells: DLD-1; conditions: 4 hours
# Description: as §2
# [7] = tested on: ERBB3 and downstream AKT signaling; assay: Western blot of MEKi-induced ERBB3/AKT signaling in LS513 cells; type: cell-based; parameters: dose or concentration left out as unconfirmed; conditions: LS513, 48 hours
# Description: as §2
# MDR1 [8] = molecular target: T3, MDR1 (Homo sapiens, UniProt P08183); assay: Rhodamine 123 efflux assay in degrader-resistant cells; type: cell-based; parameters: endogenous in cells; host or cells: A1847 parental, dBET6-R, Thal-R; SUM159 parental, MZ1-R
# Description: (§1) Efflux assay was performed according to manufacturer's protocol (Millipore Sigma #ECM910). Cells were resuspended in cold efflux buffer and incubated with Rhodamine 123 for 1 hour on ice. Cells were centrifuged and treated in warm efflux buffer with DMSO or drug for 30-60 minutes, washed with cold PBS, and effluxed dye was quantified with a plate reader at an excitation wavelength of 485 nm and an emission wavelength of 530 nm.
# DLD-1 cells = assay: Colony formation assay (14 days) in DLD-1 cells
# BRD4 (BET proteins) = molecular target: T4, BRD4 (BET proteins) (Homo sapiens, UniProt O60885); assay: Western blot of BET protein/BRD4 degradation in DLD-1 cells; type: cell-based; conditions: 4 hours
# T4 construct: endogenous in cells; host or cells: DLD-1
# Description: as §2
# LS513 xenografts = assay: Tumor xenograft experiment; type: in vivo, nude mice; conditions: MS934 50 mg/kg intraperitoneal daily, lapatinib 100 mg/kg oral gavage daily, or the combination; two weeks
# Description: Animal studies were conducted in accordance with the guidelines set forth by the Institutional Animal Care and Use Committee. 1×10^6 LS513 cells were prepared in growth factor reduced Matrigel (Corning) 1:1 and injected into the right flank of 6- to 8-weeks old nude mice. […] For in vivo studies, MS934 was resuspended in 5% N-methyl-2-pyrrolidinone (NMP), 5% Kolliphor HS-15 (sigma) and 90% saline; and delivered by intraperitoneal injection (daily). […] Tumor volumes were evaluated every two days using a caliper and the volume was calculated applying the following formula: [(width)^2×(length)]/2.
# [9] = tested on: A1847 dBET6-R or Thal-R cells; assay: Apoptosis by western blot in degrader-resistant A1847 cells; type: cell-based; conditions: 2 μM, 4 hours
# Description: as §2
# MDR1 [10] = molecular target: T3, MDR1; assay: Rhodamine 123 efflux assay in DLD-1 cells; type: cell-based; parameters: endogenous in cells; conditions: 2 μM
# Description: as §1
# [11] = tested on: BET proteins (BRD2, BRD3 or BRD4); assay: Western blot of BET protein degradation, parental vs degrader-resistant cells; type: cell-based
# Description: as §2
# MDR1 [12] = molecular target: T3, MDR1; assay: Rhodamine 123 efflux assay in LS513 cells; type: cell-based; parameters: endogenous in cells; conditions: 2 μM
# Description: as §1, with “Cells were resuspended in cold efflux buffer and incubated with Rhodamine 123 for 1 hour on ice.” left out
# SW837 cells = assay: CellTiter-Glo viability with Bliss drug synergy analysis in SW837 cells
# SW1463 cells = assay: CellTiter-Glo viability with Bliss drug synergy analysis in SW1463 cells; type: cell-based
# [13] = tested on: OVCAR3, HCT116, and MOLT4 cells; assay: CellTiter-Glo cell viability, parental vs MZ1 chronically exposed cells; conditions: MZ1-R OVCAR3 and HCT116 vs parental
# A1847 or SUM159 cells = assay: Colony formation assay (14 days, crystal violet); conditions: SUM159 cells expressing Flag-MDR1, MZ1 0.1 μM, with or without tariquidar 0.1 μM
# T3 sequence (P08183 whole entry): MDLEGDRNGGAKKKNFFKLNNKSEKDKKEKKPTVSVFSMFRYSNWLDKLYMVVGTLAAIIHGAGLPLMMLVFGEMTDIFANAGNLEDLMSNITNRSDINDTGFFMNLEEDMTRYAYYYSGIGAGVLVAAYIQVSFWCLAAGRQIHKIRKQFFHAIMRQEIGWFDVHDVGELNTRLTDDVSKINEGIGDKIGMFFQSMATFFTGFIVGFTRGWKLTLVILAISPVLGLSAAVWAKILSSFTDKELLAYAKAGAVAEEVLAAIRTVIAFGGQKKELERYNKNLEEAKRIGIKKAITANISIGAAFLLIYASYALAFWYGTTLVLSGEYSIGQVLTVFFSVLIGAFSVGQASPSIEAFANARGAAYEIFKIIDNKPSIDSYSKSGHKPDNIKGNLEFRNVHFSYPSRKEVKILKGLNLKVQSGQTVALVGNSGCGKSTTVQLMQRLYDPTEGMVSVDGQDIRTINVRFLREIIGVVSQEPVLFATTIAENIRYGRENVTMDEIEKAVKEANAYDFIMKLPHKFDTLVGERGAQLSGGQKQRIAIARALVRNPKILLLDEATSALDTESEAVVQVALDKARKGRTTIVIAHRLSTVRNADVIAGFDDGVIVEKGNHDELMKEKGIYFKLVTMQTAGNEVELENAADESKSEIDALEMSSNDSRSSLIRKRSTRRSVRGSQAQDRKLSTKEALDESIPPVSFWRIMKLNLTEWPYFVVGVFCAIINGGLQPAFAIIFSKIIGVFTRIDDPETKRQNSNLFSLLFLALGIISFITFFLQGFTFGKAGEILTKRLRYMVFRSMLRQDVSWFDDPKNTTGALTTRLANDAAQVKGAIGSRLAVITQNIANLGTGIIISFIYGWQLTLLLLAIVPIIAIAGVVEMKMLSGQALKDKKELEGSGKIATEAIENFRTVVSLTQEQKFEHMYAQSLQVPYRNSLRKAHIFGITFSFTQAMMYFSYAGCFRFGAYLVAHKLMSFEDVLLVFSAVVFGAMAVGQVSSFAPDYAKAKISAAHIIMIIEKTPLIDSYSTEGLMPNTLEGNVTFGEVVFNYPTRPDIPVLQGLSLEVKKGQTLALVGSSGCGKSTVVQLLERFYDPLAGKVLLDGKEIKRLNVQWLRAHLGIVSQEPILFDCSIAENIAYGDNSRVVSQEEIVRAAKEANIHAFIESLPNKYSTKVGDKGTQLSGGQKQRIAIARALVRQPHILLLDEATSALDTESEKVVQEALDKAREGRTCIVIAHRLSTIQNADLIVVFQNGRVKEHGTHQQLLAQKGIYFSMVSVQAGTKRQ
# T2 sequence (P50750 whole entry): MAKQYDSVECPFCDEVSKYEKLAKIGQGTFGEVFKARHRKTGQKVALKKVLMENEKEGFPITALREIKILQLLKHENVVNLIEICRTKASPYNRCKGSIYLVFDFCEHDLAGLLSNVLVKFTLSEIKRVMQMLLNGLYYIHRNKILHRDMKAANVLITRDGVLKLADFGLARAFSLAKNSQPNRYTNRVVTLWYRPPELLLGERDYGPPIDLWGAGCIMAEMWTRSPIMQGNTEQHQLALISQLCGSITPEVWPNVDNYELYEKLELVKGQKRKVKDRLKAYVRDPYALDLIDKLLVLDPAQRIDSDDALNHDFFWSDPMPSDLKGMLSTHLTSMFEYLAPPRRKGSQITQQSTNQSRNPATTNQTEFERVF
# T2 sequence (O60563 whole entry partner): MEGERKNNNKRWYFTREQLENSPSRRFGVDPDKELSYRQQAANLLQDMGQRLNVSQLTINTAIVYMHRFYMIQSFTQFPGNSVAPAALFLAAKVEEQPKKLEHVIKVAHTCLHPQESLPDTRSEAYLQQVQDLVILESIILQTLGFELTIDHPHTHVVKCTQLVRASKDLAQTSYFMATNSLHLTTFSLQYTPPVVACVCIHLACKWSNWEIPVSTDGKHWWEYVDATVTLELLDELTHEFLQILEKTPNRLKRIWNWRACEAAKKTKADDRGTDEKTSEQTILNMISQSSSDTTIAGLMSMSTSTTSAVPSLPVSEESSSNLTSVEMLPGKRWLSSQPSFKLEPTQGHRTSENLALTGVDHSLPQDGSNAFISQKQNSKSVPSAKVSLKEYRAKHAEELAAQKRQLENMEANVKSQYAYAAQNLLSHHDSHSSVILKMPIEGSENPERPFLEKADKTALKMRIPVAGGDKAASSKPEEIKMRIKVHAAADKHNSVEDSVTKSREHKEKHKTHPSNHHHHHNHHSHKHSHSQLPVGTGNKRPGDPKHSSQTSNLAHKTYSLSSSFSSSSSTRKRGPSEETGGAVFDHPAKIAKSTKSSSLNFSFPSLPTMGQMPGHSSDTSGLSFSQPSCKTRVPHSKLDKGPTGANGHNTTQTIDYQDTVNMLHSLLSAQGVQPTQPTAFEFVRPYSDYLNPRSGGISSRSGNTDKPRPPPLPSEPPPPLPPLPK
smiles,measurement,setting,value
C=C(F)C(=O)N1CCN(c2nc(OC[C@@H]3CCCN3CCCOCCC(=O)N[C@H](C(=O)N3C[C@H](O)C[C@H]3C(=O)NCc3ccc(-c4scnc4C)cc3)C(C)(C)C)nc3c2CCN(c2cccc4cccc(Cl)c24)C3)C[C@@H]1CC#N [LC-2],"KRASG12C protein levels, single agent","KRASG12C; SW1463 cells, 1 μM",had no impact on KRASG12C protein levels
same,sensitivity (colony formation),[1],intrinsic resistance
CC(C)(C)c1cnc(CSc2cnc(NC(=O)C3CCN(CC(=O)NCCOCCOCCOCCNc4cccc5c4C(=O)N(C4CCC(=O)NC4=O)C5=O)CC3)s2)o1 (stereo not drawn) [Thal SNS 032],cross-resistance to PROTACs targeting other proteins,[2],cross-resistant
same,MDR1 protein levels upregulated relative to parental cell lines by LFQ analysis,MDR1 (ABCB1),~2.5 fold
same,CDK9 protein levels and phosphorylation of RNA polymerase (S2),"CDK9 [3]; chronically exposed A1847 cells vs parental, increasing doses, 24 hours",did not inhibit cell viability or reduce CDK9 protein levels
same,acquired resistance (cell viability dose-response),"[4]; A1847 parental vs chronically exposed cells, escalating doses, 5 days",acquire resistance
same,cell viability of MDR1 overexpressing cells,[5],did not reduce cell viability to the extent of cancer cell lines expressing low or no detectable MDR1 protein
same,reduction of intended degrader target (CDK9),"CDK9 [6]; DLD-1, single agent, escalating doses, vs A1847 or MOLT4",did not reduce the intended degrader target to the extent observed with degrader-sensitive A1847 or MOLT4 cells
same,degradation efficiency of CDK9 on co-treatment with tariquidar,"CDK9 [6]; DLD-1, increasing doses plus tariquidar 0.1 μM",improved the degradation efficiency
CS(=O)(=O)CCNCc1ccc(-c2ccc3ncnc(Nc4ccc(OCc5cccc(F)c5)c(Cl)c4)c3c2)o1 [lapatinib],MEK inhibitor-induced ERBB3 and downstream AKT and RAF signaling,[7],could be blocked by lapatinib treatment
same,MDR1 drug efflux activity (Rhodamine 123 efflux),"MDR1 [8]; A1847 dBET6-R or Thal-R cell lines, 2 μM",reduced MDR1 drug efflux activity similar to that observed with tariquidar
same,growth inhibition of colonies on combination with Thal SNS 032,"DLD-1 cells; compound at 2 μM, 14 days",enhancing growth inhibition of colonies
same,colony formation on co-treatment with dBET6,"DLD-1 cells; dBET6 0.1 μM plus the compound at 2 μM, 14-day period",sensitized DLD-1 cells to dBET6
same,reduction in concentrations of dBET6 required to degrade BRD4 when combined,BRD4 (BET proteins); combined with the compound at 2 μM,100 fold
same,dBET6-mediated degradation of BRD4 on combined treatment,BRD4 (BET proteins); increasing doses of dBET6 plus the compound at 2 μM,improved dBET6-mediated degradation of BRD4
same,tumor growth (tumor volume),LS513 xenografts,ineffective
same,PROTAC-mediated degradation of KRASG12C on combining with LC-2,"KRASG12C; SW1463, 48 hours",improved PROTAC-mediated degradation of KRASG12C reducing protein levels
same,phosphorylation of MEK and ERK on combining with LC-2,"KRASG12C; SW1463, 48 hours",reduced phosphorylation of MEK and ERK
same,CRAF and AKT phosphorylation and apoptosis on combining with LC-2,"KRASG12C; SW1463, lapatinib 5 μM, 48 hours","uniquely reduced CRAF and AKT phosphorylation, as well as induced apoptosis"
same,apoptosis in degrader-resistant cell lines,[9],resulted in apoptosis similar to tariquidar treatment
same,degradation of CDK9 in degrader-resistant cell lines,"CDK9 [3]; A1847 Thal-R vs parental, 2 μM, 4 hours","resulted in degradation of BET proteins (FIG. 5, Panel G; FIG. 12, Panels E and F) or CDK9"
same,sensitivity of degrader-resistant cells vs parental cells (cell viability),[4],more sensitive
same,degradation of CDK9 by Thal SNS 032 on combined treatment,"CDK9 [6]; DLD-1, increasing doses of Thal SNS 032 plus the compound at 2 μM",improving degradation of CDK9
same,MDR1 drug efflux activity (Rhodamine 123 efflux),MDR1 [10],reduced MDR1 drug efflux activity similar to tariquidar-treatment
same,degradation of BET proteins in degrader-resistant cell lines,"[11]; A1847 dBET6-R or MZ1-R vs parental, 2 μM, 4 hours",resulted in degradation of BET proteins
same,MDR1 drug efflux activity (Rhodamine 123 efflux),MDR1 [12],reduced MDR1 drug efflux activity similar to tariquidar
COc1cc2c(cc1OC)CN(CCc1ccc(NC(=O)c3cc(OC)c(OC)cc3NC(=O)c3cnc4ccccc4c3)cc1)CC2 [tariquidar],MDR1 drug efflux pump activity (efflux of Rhodamine 123),"MDR1 [8]; A1847 dBET6-R, Thal-R or MZ1-R SUM159 cells compared to parental cells",reduced MDR1 drug efflux pump activity
same,drug synergy with LC-2,SW837 cells,marginal synergy
same,PROTAC-mediated degradation of KRASG12C on combining with LC-2,"KRASG12C; SW1463, 48 hours",improved PROTAC-mediated degradation of KRASG12C reducing protein levels
same,phosphorylation of MEK and ERK on combining with LC-2,"KRASG12C; SW1463, 48 hours",reduced phosphorylation of MEK and ERK
same,drug synergy with LC-2,SW1463 cells,marginal synergy
same,degradation of CDK9 in degrader-resistant cells on MDR1 inhibition,"CDK9 [3]; tariquidar 0.1 μM, 24 hours, A1847 Thal-R",restored degradation of BET proteins or CDK9
same,sensitivity of degrader-resistant cells vs parental cells (cell viability),[4],more sensitive
same,sensitivity of MZ1-resistant cells (cell viability),[13],increased sensitivity
same,colony formation with forced expression of Flag-MDR1,A1847 or SUM159 cells,could be blocked by tariquidar-treatment
same,degradation of BET proteins in degrader-resistant cells on MDR1 inhibition,"[11]; tariquidar 0.1 μM, 24 hours, A1847 dBET6-R, SUM159 MZ1-R (maintained in PROTAC)",restored degradation of BET proteins or CDK9
